Assay results published in ChEMBL document CHEMBL5726478, “Histone demethylase inhibitors” (2019).

Target: T1, Lysine-specific demethylase 4C (Homo sapiens, UniProt Q9H3R0)
T1 sequence (Q9H3R0 whole entry): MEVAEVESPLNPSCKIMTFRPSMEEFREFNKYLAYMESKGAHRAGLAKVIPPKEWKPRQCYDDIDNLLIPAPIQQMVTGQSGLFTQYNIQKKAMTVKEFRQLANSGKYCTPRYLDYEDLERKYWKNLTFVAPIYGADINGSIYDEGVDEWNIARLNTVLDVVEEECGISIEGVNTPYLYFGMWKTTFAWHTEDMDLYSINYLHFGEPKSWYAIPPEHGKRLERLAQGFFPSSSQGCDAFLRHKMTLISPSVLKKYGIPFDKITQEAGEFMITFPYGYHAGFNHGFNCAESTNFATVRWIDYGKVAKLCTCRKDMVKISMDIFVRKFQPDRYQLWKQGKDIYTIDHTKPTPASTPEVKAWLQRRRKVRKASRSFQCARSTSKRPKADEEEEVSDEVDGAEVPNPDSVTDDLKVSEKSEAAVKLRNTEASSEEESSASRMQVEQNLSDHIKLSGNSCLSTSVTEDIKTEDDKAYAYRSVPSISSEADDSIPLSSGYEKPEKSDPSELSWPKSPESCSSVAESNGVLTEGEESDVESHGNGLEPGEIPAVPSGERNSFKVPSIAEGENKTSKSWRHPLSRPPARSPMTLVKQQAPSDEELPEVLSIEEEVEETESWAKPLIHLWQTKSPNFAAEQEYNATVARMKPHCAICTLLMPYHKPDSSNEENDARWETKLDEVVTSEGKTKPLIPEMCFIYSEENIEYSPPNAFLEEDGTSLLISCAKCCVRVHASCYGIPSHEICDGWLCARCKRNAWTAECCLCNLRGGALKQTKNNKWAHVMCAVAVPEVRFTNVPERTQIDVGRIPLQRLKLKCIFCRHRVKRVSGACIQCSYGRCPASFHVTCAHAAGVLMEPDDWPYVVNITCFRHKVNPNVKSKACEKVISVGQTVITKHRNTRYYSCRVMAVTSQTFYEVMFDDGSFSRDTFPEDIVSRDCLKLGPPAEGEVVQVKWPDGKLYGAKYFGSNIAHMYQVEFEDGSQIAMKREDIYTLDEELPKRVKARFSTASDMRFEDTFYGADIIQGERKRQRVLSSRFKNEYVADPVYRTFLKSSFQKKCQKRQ
Assay: JMJD2C Assay: The ability of test compounds to inhibit the activity of JMJD2C was determined in 384-well plate-format under the following reaction conditions: 0.3 nM JMJD2C, 300 nM H3K9me3-biotin labeled peptide (Anaspec cat #64360), 2 μM alpha-ketoglutaric acid in assay buffer of 50 mM HEPES, pH 7.3, 0.005% Brij35, 0.5 mM TCEP, 0.2 mg/ml BSA, 50 μM sodium L-ascorbate, and 2 μM ammonium iron(II) sulfate. Reaction product was determined quantitatively by TR-FRET after the addition of detection reagent Phycolink Streptavidin-allophycocyanin (Prozyme) and Europium-anti-di-methylated histone H3 lysine 9 (H3K9me2) antibody (PerkinElmer) in the presence of 5 mM EDTA in LANCE detection buffer (PerkinElmer) at a final concentration of 50 nM and 1 nM, respectively.The assay reaction was initiated by the following: 2 μl of the mixture of 900 nM H3K9me3-biotin labeled peptide and 6 μM alpha-ketoglutaric acid with 2 μl of 11-point serial diluted inhibitor in 3% DMSO were added to each well of the plate, followed by the addition of 2 μl of 0.9 nM JMJD2C to initiate the reaction. The reaction mixture was incubated at room temperature for 30 min, and terminated by the addition of 6 μl of 5 mM EDTA in LANCE detection buffer containing 100 nM Phycolink Streptavidin-allophycocyanin and 2 nM Europium-anti-H3K9me2 antibody. […]

IC50: < 100 nM
SMILES: CC(C)N1CCN(c2cccc(N(C)c3ccc(Oc4nc(O)c5ccncc5n4)cc3)c2)CC1
